Results on two compounds are retold here after paper PMC10893082, “Development and Optimization of Andrographis paniculata Extract-Loaded Self-Microemulsifying Drug Delivery System Using Experimental Design Model” (Pharmaceutics, 2024).

On the set-up of data set [1]: method as in ref 53, Kim et al., (2019). The conditions noted are these: Kim et al., (2019), cited from earlier work.
The nature of data set [2]: physchem. The data set is classed as physicochemical. The method, then: To find the solubility of AGP in the optimized SMEDDS (highest amount of AGP that can be loaded into the optimized SMEDDS), an excess amount of A. paniculata extract was added to the 1.5 mL of the optimized SMEDDS and shaken at 37 °C 120 rpm for 72 h in an incubator shaker. Then, the AGPE-loaded optimized SMEDDS was centrifuged at 14,000 rpm for 30 min to separate the extract powder from the AGP-extracted SMEDDS. The supernatant was collected and diluted with methanol before the analysis of AGP content using HPLC. HPLC analysis with UV detection was used to quantify the content of AGP. An Agilent® 1200 (Santa Clara, CA, USA) with an Agilent® ZORBAX Eclipse XDB-C18 (4.6 × 150 mm, 5 µm) column was used. The mobile phase was methanol:water (65:35), and the injection volume was 20 µL. The flow rate was set at 0.8 mL/min, and the detection wavelength was 228 nm. The standard curve of AGP was constructed, ranging from 5 to 200 µg/mL.

The subject of data set [3] is SARS-CoV-2. The arrangement: method as in ref 6, Sa-ngiamsuntorn et al., (2021). The conditions noted are these: Sa-ngiamsuntorn et al., (2021); cited from earlier work.

Structures are written as SMILES. ≈ marks a conversion by molar mass, not a printed value. A value given as a limit tells only on which side of the number the result lay.

Regarding `CN(Cc1cnc2nc(N)nc(N)c2n1)c1ccc(C(=O)N[C@@H](CCC(=O)O)C(=O)O)cc1` [methotrexate], in data set [1] (SMEDDS formulation), the “Time within which dissolution was completed” value is ≤ 20 min. For the same compound, the Drug powder dissolved in data set [1] (drug powder, after 60 min) was 53%.

On to `C=C1CC[C@@H]2[C@](C)(CO)[C@H](O)CC[C@@]2(C)[C@@H]1C/C=C1/C(=O)OC[C@H]1O` [AGP, andrographolide], for which the solubility (in general, the dissolved amount per volume that the medium holds) in data set [2] was ~42 mg/mL (≈ 120 mM). Moreover, the solubility at 72 h in data set [2] (37 °C, thermodynamic from solid) is ~38 mg/mL (≈ 108 mM). In addition, the “anti-SARS-CoV-2 activity, IC50” value in data set [3] was “equivalent to the antiviral agent remdesivir”.
